# Reference: patent publication US10899774B2, “IRAK4 modulators” (Genentech, Inc., priority 2017, dated 2021)
# Where a name gives a salt, the structure may show the parent alone.
# Target: human IRAK4 (Homo sapiens (Human), UniProt Q9NWZ3)
# Assay: IRAK4 kinase inhibition, Transcreener fluorescence polarization (ADP detection)
# Type: biochemical
# Details: recombinant full-length His6-IRAK4; 1.25 nM IRAK4; 125 μM ATP; 90 min; ATP Km 642 μM
# Procedure: Compounds were assayed for inhibition of human IRAK4 and IRAK1 catalytic activity using recombinant enzyme produced from insect cells. Full-length IRAK4 protein, carrying an N-terminal His6-Tag, was obtained from Life Technologies (Carlsbad, Calif., USA). The IRAK1 construct was produced internally and was comprised of IRAK1 residues Arg194 to Ser712, preceded by an NH2-terminal His6 tag and the coding sequence for glutathione-S-transferase.
# Kinase activities were assayed using the Transcreener-Fluorecescence polarization platform (BelBrook Labs, Madison, Wis., USA) that measures amounts of the reaction product, ADP.
# 384 well assay plates spotted with compound received 4 μl of a 2× substrate (ATP+peptide) mix in reaction buffer, followed by 4 μl of 2× enzyme diluted in reaction buffer.
# Chain of human IRAK4 (Q9NWZ3 whole entry): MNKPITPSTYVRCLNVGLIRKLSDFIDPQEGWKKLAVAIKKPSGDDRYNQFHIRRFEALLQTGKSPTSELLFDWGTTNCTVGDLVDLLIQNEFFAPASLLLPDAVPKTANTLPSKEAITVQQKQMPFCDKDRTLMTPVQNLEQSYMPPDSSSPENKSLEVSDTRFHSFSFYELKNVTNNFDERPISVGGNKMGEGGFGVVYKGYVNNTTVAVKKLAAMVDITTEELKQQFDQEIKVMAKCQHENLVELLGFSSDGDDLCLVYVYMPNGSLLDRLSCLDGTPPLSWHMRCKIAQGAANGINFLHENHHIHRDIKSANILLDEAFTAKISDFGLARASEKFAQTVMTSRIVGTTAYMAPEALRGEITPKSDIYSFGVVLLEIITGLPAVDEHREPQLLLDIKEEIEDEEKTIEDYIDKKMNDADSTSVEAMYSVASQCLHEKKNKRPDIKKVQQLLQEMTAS
row,SMILES,Ki
1,"CC1(C)Cc2cc(NC(=O)c3csc(N4CCOCC4)n3)c(N3CCOCC3)cc2O1 [Example 36, N-(2,2-Dimethyl-6-morpholino-2,3-dihydrobenzofuran-5-yl)-2-morpholinothiazole-4-carboxamide]",3.8 nM
2,"CC1(C)Cc2cc(NC(=O)c3coc(N4CCOCC4)n3)c(N3CCOCC3)cc2O1 [Example 37, N-(2,2-Dimethyl-6-morpholino-2,3-dihydrobenzofuran-5-yl)-2-morpholinooxazole-4-carboxamide]",5.2 nM
3,"CC1(C)Cc2cc(NC(=O)c3coc(C4CC4)n3)c(N3CCOCC3)cc2O1 [Example 38, 2-Cyclopropyl-N-(2,2-dimethyl-6-morpholino-2,3-dihydrobenzofuran-5-yl)oxazole-4-carboxamide]",7.4 nM
4,"CC1(C)Cc2cc(NC(=O)c3cccc4[nH]c(CO)nc34)c(N3CCOCC3)cc2O1 [Example 40, N-(2,2-Dimethyl-6-morpholino-2,3-dihydrobenzofuran-5-yl)-2-(hydroxymethyl)-1H-benzo[d]imidazole-4-carboxamide]",28 nM
5,"CC1(C)Cc2cc(NC(=O)c3coc(C(C)(C)C)n3)c(N3CCOCC3)cc2O1 [Example 41, 2-(tert-Butyl)-N-(2,2-dimethyl-6-morpholino-2,3-dihydrobenzofuran-5-yl)oxazole-4-carboxamide]",43 nM
6,"CC1(C)Cc2cc(NC(=O)c3cscn3)c(N3CCOCC3)cc2O1 [Example 42, N-(2,2-Dimethyl-6-morpholino-2,3-dihydrobenzofuran-5-yl)thiazole-4-carboxamide]",98 nM
7,"CCc1cnc(C(=O)Nc2cc3c(cc2N2CCOCC2)OC(C)(C)C3)[nH]1 [Example 43, N-(2,2-Dimethyl-6-morpholino-2,3-dihydrobenzofuran-5-yl)-5-ethyl-1H-imidazole-2-carboxamide]",110 nM
8,"Cc1cnc(C(=O)Nc2cc3c(cc2N2CCOCC2)OC(C)(C)C3)[nH]1 [Example 44, N-(2,2-Dimethyl-6-morpholino-2,3-dihydrobenzofuran-5-yl)-5-methyl-1H-imidazole-2-carboxamide]",290 nM
9,"CC1(C)Cc2cc(NC(=O)c3n[nH]c4cccnc34)c(N3CCOCC3)cc2O1 [Example 45, N-(2,2-Dimethyl-6-morpholino-2,3-dihydrobenzofuran-5-yl)-1H-pyrazolo[4,3-b]pyridine-3-carboxamide]",490 nM
10,"CC1(C)Cc2cc(NC(=O)c3ccncn3)c(N3CCOCC3)cc2O1 [Example 46, N-(2,2-Dimethyl-6-morpholino-2,3-dihydrobenzofuran-5-yl)pyrimidine-4-carboxamide]",140 nM
11,"CC1(C)Cc2cc(NC(=O)c3ncc(C(C)(C)C)[nH]3)c(N3CCOCC3)cc2O1 [Example 47, 5-(tert-Butyl)-N-(2,2-dimethyl-6-morpholino-2,3-dihydrobenzofuran-5-yl)-1H-imidazole-2-carboxamide]",200 nM
12,"CC1(C)Cc2cc(NC(=O)c3ccco3)c(N3CCOCC3)cc2O1 [Example 48, N-(2,2-Dimethyl-6-morpholino-2,3-dihydrobenzofuran-5-yl)furan-2-carboxamide]",220 nM
13,"CC(=O)Nc1cc(-n2ccc(C(=O)Nc3cc4c(cc3N3CCOCC3)OC(C)(C)C4)n2)ccn1 [Example 49, 1-(2-Acetamido-4-pyridyl)-N-(2,2-dimethyl-6-morpholino-3H-benzofuran-5-yl)pyrazole-3-carboxamide]",7.6 nM
14,"Cn1nnc2c(C(=O)Nc3cc4c(cc3N3CCOCC3)OC(C)(C)C4)cncc21 [Example 50, N-(2,2-Dimethyl-6-morpholino-3H-benzofuran-5-yl)-3-methyl-triazolo[4,5-c]pyridine-7-carboxamide]",78 nM
15,"Cc1nc(C(=O)Nc2cc3c(cc2N2CCOCC2)OC(C)(C)C3)co1 [Example 51, N-(2,2-Dimethyl-6-morpholino-3H-benzofuran-5-yl)-2-methyl-oxazole-4-carboxamide]",18 nM
16,"Cn1nnc2c(C(=O)Nc3cc4c(cc3N3CCOCC3)OC(C)(CO)C4)cncc21 (stereo not shown) [Example 52, N-(2-(Hydroxymethyl)-2-methyl-6-morpholino-2,3-dihydrobenzofuran-5-yl)-3-methyl-3H-[1,2,3]triazolo[4,5-c]pyridine-7-carboxamide]",100 nM

row,SMILES,Ki
1,"CCn1nnc2c(C(=O)Nc3cc4c(cc3N3CCOCC3)OC(C)(C)C4)cncc21 [Example 53, N-(2,2-Dimethyl-6-morpholino-3H-benzofuran-5-yl)-3-ethyl-triazolo[4,5-c]pyridine-7-carboxamide]",220 nM
2,"CC1(C)COc2cc(C(=O)Nc3cc4c(cc3N3CCOCC3)OC(C)(CO)C4)nn2C1 (stereo not shown) [Example 54, N-[2-(Hydroxymethyl)-2-methyl-6-morpholino-3H-benzofuran-5-yl]-6,6-dimethyl-5,7-dihydropyrazolo[5,1-b][1,3]oxazine-2-carboxamide]",810 nM
3,"CC1COc2c(C(=O)Nc3cc4c(cc3N3CCOCC3)OC(C)(CO)C4)cnn2C1 (stereo not shown) [Example 55, N-[2-(Hydroxymethyl)-2-methyl-6-morpholino-3H-benzofuran-5-yl]-6-methyl-6,7-dihydro-5H-pyrazolo[5,1-b][1,3]oxazine-3-carboxamide]",390 nM
4,"COc1ccc(-n2ccc(C(=O)Nc3cc4c(cc3N3CCOCC3)OC(C)(C)C4)n2)cn1 [Example 58, N-(2,2-Dimethyl-6-morpholino-3H-benzofuran-5-yl)-1-(6-methoxy-3-pyridyl)pyrazole-3-carboxamide]",29 nM
5,"CC1(C)Cc2cc(NC(=O)c3ccn(-c4ccnc(CO)c4)n3)c(N3CCOCC3)cc2O1 [Example 59, N-(2,2-Dimethyl-6-morpholino-3H-benzofuran-5-yl)-1-[2-(hydroxymethyl)-4-pyridyl]pyrazole-3-carboxamide]",1.6 nM
6,"COc1cc(-n2ccc(C(=O)Nc3cc4c(cc3N3CCOCC3)OC(C)(C)C4)n2)ccn1 [Example 60, N-(2,2-Dimethyl-6-morpholino-3H-benzofuran-5-yl)-1-(2-methoxy-4-pyridyl)pyrazole-3-carboxamide]",8.2 nM
7,"CC1(C)Cc2cc(NC(=O)c3ccn(-c4ccnc(C(C)(C)O)c4)n3)c(N3CCOCC3)cc2O1 [Example 61, N-(2,2-Dimethyl-6-morpholino-3H-benzofuran-5-yl)-1-[2-(1-hydroxy-1-methyl-ethyl)-4-pyridyl]pyrazole-3-carboxamide]",4.6 nM
8,"CC1(C)Cc2cc(NC(=O)c3ccn(-c4ccnc(NCC(F)(F)F)c4)n3)c(N3CCOCC3)cc2O1 [Example 62, N-(2,2-Dimethyl-6-morpholino-3H-benzofuran-5-yl)-1-[2-(2,2,2-trifluoroethylamino)-4-pyridyl]pyrazole-3-carboxamide]",17 nM
9,"CC1(C)Cc2cc(NC(=O)c3ccn(-c4ccnc(C#N)c4)n3)c(N3CCOCC3)cc2O1 [Example 63, 1-(2-Cyano-4-pyridyl)-N-(2,2-dimethyl-6-morpholino-3H-benzofuran-5-yl)pyrazole-3-carboxamide]",16 nM
10,"CC1(C)Cc2cc(NC(=O)c3cncc4c3nnn4CCO)c(N3CCOCC3)cc2O1 [Example 64, N-(2,2-Dimethyl-6-morpholino-3H-benzofuran-5-yl)-3-(2-hydroxyethyl)triazolo[4,5-c]pyridine-7-carboxamide]",350 nM
11,"Cc1cn2cccc(C(=O)Nc3cc4c(cc3N3CCOCC3)OC(C)(C)C4)c2n1 [Example 65, N-(2,2-Dimethyl-6-morpholino-3H-benzofuran-5-yl)-2-methyl-imidazo[1,2-a]pyridine-8-carboxamide]",270 nM
12,"CC1(C)Cc2cc(NC(=O)c3ccn(-c4ccc(=O)[nH]c4)n3)c(N3CCOCC3)cc2O1 [Example 66, N-(2,2-Dimethyl-6-morpholino-3H-benzofuran-5-yl)-1-(6-oxo-1H-pyridin-3-yl)pyrazole-3-carboxamide]",14 nM
13,"CC1(CO)Cc2cc(NC(=O)c3csc4cc(C#N)cnc34)c(N3CCOCC3)cc2O1 (stereo not shown) [Example 69, 6-Cyano-N-(2-(hydroxymethyl)-2-methyl-6-morpholino-2,3-dihydrobenzofuran-5-yl)thieno[3,2-b]pyridine-3-carboxamide Formate]",28 nM
14,"CC1(C)Cc2cc(NC(=O)c3ccn(-c4cc[nH]c(=O)c4)n3)c(N3CCOCC3)cc2O1 [Example 70, N-(2,2-Dimethyl-6-morpholino-3H-benzofuran-5-yl)-1-(2-oxo-1H-pyridin-4-yl)pyrazole-3-carboxamide]",2.7 nM
15,"CC1(C)Cc2cc(NC(=O)c3cnn4ccc(=O)[nH]c34)c(N3CCOCC3)cc2O1 [Example 71, N-(2,2-dimethyl-6-morpholino-3H-benzofuran-5-yl)-5-oxo-4H-pyrazolo[1,5-a]pyrimidine-3-carboxamide]",930 nM
